{"source": "patent US20060193881A1", "about": "“Method and compositions for attracting mosquitoes employing (R)-(-) isomers of 1-alken-3-ols” (Bedoukian Research, Inc., priority 2005, published 2006)", "format_in_all_cases": "in vivo", "key": {"[1]": {"system": "mosquitoes", "experiment": "Mosquito Magnet Pro trap field test of 1-decen-3-ol enantiomers, Florida", "conditions": "1 gram in fibrous lure; for total mosquitoes caught: lures rotated between traps over nine days", "description": "The tests were conducted in Florida using Mosquito Magnet Pro mosquito traps manufactured by American Biophysics, rotating the lures between traps over a period of nine days, using 1 gram of each test material in a fibrous lure of the type normally used in the traps."}, "[2]": {"system": "mosquitoes", "experiment": "CO2 fan trap (John W. Hock model 1012) field test with wax lures, Danbury, Conn.", "conditions": "wax lure, approx. 0.17 mg/hour release, CO2 approx. 140 ml/minute, average of four three-day cycles", "description": "The following tests were conducted in Connecticut in September 2004. Mosquito traps model 1012 manufactured by John W. Hock Company in Gainesville, Fla. were used in these experiments. The traps use a stream of CO2 directed in the vicinity of a collection bag, with a fan used to blow mosquitoes into the bag. The light supplied with the trap was turned off. The traps were spaced 65-70 feet apart at the edge of a wetland in Danbury, Conn., at least 25 feet from any buildings. The (R) and (S)-1-octen-3-ol was incorporated into a wax lure of the type manufactured by BioSensory, Inc. and placed near a stream of CO2 which was being released at a rate of approximately 140 ml/minute. The traps were operated from approximately 4:00PM until 9:00AM the next day. Daytime temperatures were 70-75° F. during the trials. Average weight loss from the wax lures during the test was approximately 4 mg/day, or 0.17 mg/hour. Three traps were used, with either (R)-1-Octen-3-ol, (S)-1-Octen-3-ol, or no treatment, rotated among the traps over a three-day cycle. Four complete cycles were performed and the results for each treatment were averaged.\nThe traps with no attractant were considered as the baseline catch of mosquitoes and the results of the catches with the isomers were compared to this baseline value."}, "[3]": {"system": "mosquitoes", "experiment": "Mosquito Magnet Liberty trap field test with porous frit, Danbury, Conn.", "conditions": "1 gram on porous frit, 20-30 mg/day release", "description": "Tests were conducted with the Mosquito Magnet Liberty model traps manufactured by American Biophysics Corp. Traps were spaced 65-70 feet apart at the edge of a wetland in Danbury, Conn., at least 25 feet from any buildings. 1 gram of test chemical was added to a clean porous frit of the type normally used in the trap, releasing approximately 20-30 mg/day. In the first test, racemic 1-octen-3-ol and (R)-(-)-1-octen-3-ol were rotated among four traps over 8 days. In the second test, (S)-(+)-1-octen-3-ol and no treatment were rotated between three traps over nine days."}, "[4]": {"system": "mosquitoes", "experiment": "Mosquito Magnet Pro trap field test with or without ammonia source, Gainesville, Fla.", "conditions": "lure with 230 mg (R)-(-)-1-octen-3-ol; traps producing carbon dioxide and heat; twenty-day cycle", "method": "The test was conducted in Gainesville, Fla. using Mosquito Magnet Pro model mosquito traps manufactured by American Biophysics Corp. that produced carbon dioxide and heat. The traps were provided with either lures having 230 mg (R)-(-)-1-octen-3-ol isomer or lures with 230 mg (R)-(-)-1-octen-3-ol isomer in combination with a source of ammonia provided by a lure containing ammonium bicarbonate in a controlled release polymer matrix, Bactrocera (Dacus) olae, Product code BF L080, provided by AgriSense-BCS Limited, Taffs Mead Road, Treforest Industrial Estate, Pontypridd, CF37 5SU, UK. The traps were rotated between the locations for a twenty-day cycle."}, "[5]": {"system": "mosquitoes", "experiment": "Mosquito Magnet Liberty trap field test with or without ammonium bicarbonate lure, Redding, Conn.", "conditions": "lure with 800 mg (R)-(-)-1-octen-3-ol in waxy carrier; rotated daily for 15 days", "description": "A test similar to Example 3 was conducted in Redding, Conn., employing Mosquito Magnet Liberty traps rotated daily for 15 days. One trap was provided with a lure containing 470 mg (R)-(-)-1-octen-3-ol isomer in a waxy carrier plus 5 grams of ammonium bicarbonate provided by a lure containing ammonium bicarbonate in a controlled release polymer matrix, provided by […]-BCS Limited ([…]-BCS Limited […] Road, Treforest Industrial Estate, Pontypridd, CF37 5SU UK) and the second trap was provided with a lure containing 800 mg (R)-(-)-1-octen-3-ol isomer in the waxy carrier. The trap with the 800 mg (R)-(-)-1-octen-3-ol isomer attracted an average of 3.8 mosquitoes daily whereas the traps with only 470 mg (R)-(-)-1-octen-3-ol isomer plus the ammonium carbonate attracted average of 6.9 mosquitoes daily, an average increase of about 82%."}, "[6]": {"system": "mosquitoes", "experiment": "Mosquito Magnet Liberty trap field test, effect of (S) isomer on (R) isomer, Danbury Conn.", "conditions": "14 days", "description": "A test to compare the effect of the presence of (S)-(+)-1-octen-3-ol on the efficacy of (R)-(-)-1-octen-3-ol was conducted in Danbury Conn. One lure contained 200 mg of (R)-(-)-1-octen-3-ol diluted in diethyl phthalate to slow release to under 1.7 mg/day. The other lure was identical except that it also contained 200 mg of (S)-(+)-1-octen-3-ol (equivalent to 400 mg of racemic 1-octen-3-ol). The lures were rotated over 14 days between two American Biophysics Mosquito Magnet Liberty traps. The lure containing the 200 mg of (R)-(-)-1-octen-3-ol plus 200 mg (S)-(+)-1-octen-3-ol caught an average of 5.6 mosquitoes/day, while the lure containing 200 mg of (R)-(-)-1-octen-3-ol caught an average of 8.1 mosquitoes daily, representing an increase in efficacy of 45%."}, "[7]": {"system": "mosquitoes", "experiment": "John W. Hock fan-driven CO2 trap field test, small amount (R) vs large amount racemic, Danbury Conn.", "conditions": "14 days; for average mosquitoes caught: CO2 150 ml/min", "description": "A test similar to example 5 was conducted in Danbury Conn. using fan driven-traps manufactured by John W. Hock Company in Gainesville Fla. using 150 ml/min CO2. To compare the attractiveness of a large amount of racemic 1-octen-3-ol to a small amount of (R)-(-)-1-octen-3-ol, one lure contained 50 mg of (R)-(-)-1-octen-3-ol diluted in 1.5 ml diethyl phthalate, releasing 1.5 mg/day or less was evaluated against a lure containing 1660 mg of racemic 1-octen-3-ol (830 mg of each enantiomer) diluted in 1.5 ml of diethyl phthalate, and releasing approximately 40 mg of 1-octen-3-ol/day. After rotation between the two traps over 14 days, the lure with the 1660 mg of racemic octenol caught an average of 9.4 mosquitoes, while the lure containing 50 mg of (R)-(-)-1-octen-3-ol caught an average of 11.8 mosquitoes, representing an increase of 26%."}}, "data": [{"smiles": "C=C[C@@H](O)CCCCCCC", "note": "[(S)-(+)-1-decen-3-ol, reference compound]", "values": [{"measurement": "total mosquitoes caught", "setting": "[1]", "result": 47, "unit": "mosquitoes"}]}, {"smiles": "C=C[C@H](O)CCCCCCC", "note": "[(R)-(-)-1-decen-3-ol]", "values": [{"measurement": "total mosquitoes caught", "setting": "[1]", "result": 89, "unit": "mosquitoes"}, {"measurement": "improvement in catch vs (S)-(+)-1-decen-3-ol", "setting": "[1]; nine days", "result": 89, "unit": "%"}]}, {"smiles": "C=C[C@@H](O)CCCCC", "note": "[(S)-(+)-1-octen-3-ol, reference compound]", "values": [{"measurement": "more mosquitoes captured than the baseline (traps with no attractant)", "setting": "[2]", "result": 35, "unit": "%"}, {"measurement": "fewer mosquitoes caught than the trap with no attractant", "setting": "[3]; second test, three traps over nine days", "result": 37, "unit": "%"}]}, {"smiles": "C=C[C@H](O)CCCCC", "note": "[(R)-(-)-1-octen-3-ol]", "values": [{"measurement": "more mosquitoes captured than the baseline (traps with no attractant)", "setting": "[2]", "result": 88, "unit": "%"}, {"measurement": "more mosquitoes caught than trap with 50:50 racemic mixture of 1-octen-3-ol", "setting": "[3]; first test, four traps over 8 days", "result": 18, "unit": "%"}, {"measurement": "average number of mosquitoes attracted daily", "setting": "[4]", "result": 14, "unit": "mosquitoes"}, {"measurement": "average mosquitoes attracted daily", "setting": "[5]", "result": 3.8, "unit": "mosquitoes daily"}, {"measurement": "increase in efficacy vs lure also containing 200 mg (S)-(+)-1-octen-3-ol", "setting": "[6]; 200 mg (R) isomer", "result": 45, "unit": "%"}, {"measurement": "average mosquitoes caught", "setting": "[6]; lure with 200 mg (R)-(-)-1-octen-3-ol in diethyl phthalate, release under 1.7 mg/day", "result": 8.1, "unit": "mosquitoes daily"}, {"measurement": "increase in catch vs lure with 1660 mg racemic octenol", "setting": "[7]; 50 mg (R) isomer", "result": 26, "unit": "%"}, {"measurement": "average mosquitoes caught", "setting": "[7]; lure with 50 mg (R) in 1.5 ml diethyl phthalate, 1.5 mg/day or less release", "result": 11.8, "unit": "mosquitoes"}]}, {"smiles": "C=CC(O)CCCCC", "note": "(racemic) [racemic octenol, 1-octen-3-ol, reference compound]", "values": [{"measurement": "average mosquitoes caught", "setting": "[7]; lure with 1660 mg racemic in 1.5 ml diethyl phthalate, approx. 40 mg/day release", "result": 9.4, "unit": "mosquitoes"}]}]}
